Where no end group is shown, it is not given here. The star is where a group is joined. SO3H = O=S(=O)(O)*
Legend:
[1] = tested on: pancreatic juice secretion; experiment: Determination of the amount of pancreatic juice secreted in rats (Example 1); assay type: in vivo, rat
Procedure: Male rats (8 to 9 week-old) fasting from the morning of the previous day were anesthetized by subcutaneous application of urethane (1.2 g/5 ml/kg) and polyethylene tubes were inserted into the arteria carotis communis and the femoral vein. The abdomen was cut open along the median line and the gastric pylorus was ligated. Then, a polyethylene tube was inserted into the bile duct at the hepatic portal portion, through which the tip of the tube was inserted into the pore opened in the duodenum intestine in order to return bile to the duodenum intestine. The origin of the hepatoapancreatic tube from the duodenum intestine was cut open, into which a tube was inserted in the same way as in the bile duct and led outside the body. Pure pancreatic juice was collected from the tube.
The drug was continuously administered through the femoral vein with saline. On the other hand, a saline containing 18:3-LPA, 18:3-LPC or 0.5% bovine serum albumin (Sigma, A-0281) as control (vehicle) was infused (1 ml/h) through the cervical vein, and pancreatic juice was collected for 1 hour.
The volume of the collected pancreatic juice was measured. In this connection, saline was infused through the cervical vein and the femoral vein 1 hour before administration of the drug, during which time the amount of pancreatic juice secreted was measured in order to ascertain that there was no considerable difference between individual animals in the pre-value to the pancreatic juice secretion in the individual animals.

amylase secretion = experiment: Determination of the amount of amylase secreted (Example 2); assay type: in vivo, rat
Procedure: The pancreatic juice collected in Example 1 was diluted with Dulbecco's phosphate-buffered saline(−) (PBS(−)) at an appropriate dilution rate, of which the amylase activity was determined with a reagent of a Diacolor AMY Neorate (Ono Pharmaceutical) kit. To 10 μl of an amylase standard solution (Worthington Biochemical, diluted to 100 U/L to 6,400 U/L with PBS(−)) or the collected diluted pancreatic juice was added 50 μl of an enzyme reagent of the kit, and the mixture was incubated at 37° C. for 3 minutes. Then, after addition of 50 μl of a substrate reagent of the kit, the variation (Vmax) of optical density (OD) at 400 nm was monitored at 37° C. for 3 minutes (SPECTRAMAX 250). The amylase activity was calculated from an amylase standard curve to evaluate the effect of the subject substance by means of the secreted amount of the enzyme (U/h) obtained by the enzyme activity (concentration) (U/L) multiplied by the amount of pancreatic juice collected (L/h).

[2] = tested on: cholecystokinin-induced pancreatic juice secretion; experiment: Pancreatic juice secreted in rats by stimulation with cholecystokinin (CCK-8) (Example 4); assay type: in vivo, rat; conditions: CCK-8 0.12 μg/kg/h
Procedure: The pancreatic juice secreted in rats was collected in the same manner as described in Example 1. In order to ascertain the effect of LPA on excessive pancreatic juice secretion by CCK, an experiment was conducted according to a protocol as shown in Table 2. As CCK, CCK-8 (Sigma No. C-2175) was used.
Saline was infused through the cervical vein and the femoral vein 1 hour before administration of the drug, during which time the amount of pancreatic juice secreted was measured in order to ascertain that there was no considerable difference between individual animals in the pre-value to the pancreatic juice secretion in the individual animals. After 1 hour infusion of saline, to the 18:3-LPA group and the 18:3-LPC group, were infused 3 mg/kg/h of 18:3-LPA and 10 mg/kg/h of 18:3-LPC, respectively, through the femoral vein. After lapse of 1 hour, CCK-8 was intravenously infused for stimulation through the cervical vein in order to examine the effect of LPA on the excessive pancreatic juice secretion. To the control group (vehicle) with no stimuli by CCK-8, 0.5% BSA in saline was administered through the cervical vein. On the other hand, saline was infused to the LPA control group (vehicle) through the femoral vein. In other groups, CCK-8 was administered through the cervical vein at a rate of 0.12 μg/kg/h and 1 ml/h. In the 18:3-LPA group and the 18:3-LPC group, 3 mg/kg/h of 18:3-LPA and 10 mg/kg/h of 18:3-LPC, respectively, were infused through the femoral vein. In the control group with no stimuli by CCK-8 and in the 18:3-LPA control group (vehicle), saline was administered through the femoral vein. One hour after the final administration (Admn.2), the volume of pancreatic juice collected was measured.

lipase secretion = experiment: Determination of the amount of lipase secreted (Example 3); assay type: in vivo, rat; conditions: rats
Procedure: The pancreatic juice collected in Example 1 was diluted with saline at an appropriate dilution rate and the lipase activity was measured with a reagent contained in Liquitech Lipase Color kit (Roche Diagnostics). Then, 100 μl of a kit R-1 solution was added to 10 μl of a lipase standard solution (Worthington Biochemical; prepared to 1 U/L to 1,000 U/L with saline) or the collected diluted pancreatic juice, and the mixture was incubated at 37° C. for 5 minutes. Then, 60 μl of a kit R-2 solution was added and the variation (Vmax) of optical density (OD) at 570-700 nm was monitored at 37° C. for 3 minutes (SPECTRAMAX 250). The lipase activity of the pancreatic juice was calculated from a lipase standard curve to evaluate the effect of the subject substance by means of the secreted amount of the enzyme (U/h) obtained by the enzyme activity (concentration)(U/L) multiplied by the amount of pancreatic juice collected (L/h).

[3] = tested on: pancreatic juice secretion; experiment: Effect of LPA receptor or EDG-2 antagonist on pancreatic juice secretion in rats (Example 7); assay type: in vivo, rat
Procedure: Using Compound 1 having the effect as a EDG-2 antagonist was confirmed in Example 5, the effect of LPA on the pancreatic juice secretion was examined.
In rats, (1) 18:3-LPA and (2) saline as a control (vehicle) for 18:3-LPA were respectively infused through the femoral vein, and (3) Compound 1 and (4) 5% bovine serum albumin/10% DMSO/saline as a control (vehicle) for Compound 1 were respectively infused through the cervical vein, at a rate of 0.5 ml/h for 1 hour.
On the other hand, saline was previously infused through the femoral vein and cervical vein (0.5 ml/h), and after one hour the pancreatic juice was collected in order to ascertain that there was no difference in the initial volumes of the secreted pancreatic juice in rats in each group.

[4] = tested on: pancreatic juice secretion; experiment: Effect of LPA receptor or EDG-2 agonist on pancreatic juice secretion in rats (Example 6); assay type: in vivo; conditions: rat, intravenous infusion through the cervical vein
Procedure: Using an LPA receptor or EDG-2 agonist, the effect of LPA on the pancreatic juice secretion was examined. An LPA receptor agonist 18:3-LPA was intravenously infused to a rat through the cervical vein, and the amount of pancreatic juice secreted was measured. In a group to which 18:3-LPA was administered, the pancreatic juice secretion was inhibited in rats.

[5] = 10 mg/kg/h, 1 ml/h, i.v. infusion

CC/C=C\C/C=C\C/C=C\CCCCCCCC(=O)OCC(O)COP(=O)(O)O (stereo not drawn) [18:3-LPA, 1-linolenoyl-lyzophosphatidic acid]
dose at which the effect on pancreatic juice secretion reached approximately the maximum ([1]; i.v. infusion 1 ml/h): ~3 mg/kg/h
pancreatic juice secretion ([1]; i.v. infusion 1 ml/h for 1 hr, 18:3-LPA 1, 3, 10 mg/kg/h, FIG. 1): decreased
pancreatic juice secretion ([1]; i.v. infusion 1 ml/h for 1 hr, 18:3-LPA 1, 3, 10 mg/kg/h, FIG. 1, listed as LPA): Dose-dependent inhibitory effect
amount of amylase secreted (amylase secretion; rats, 1, 3 or 10 mg/kg/h i.v. infusion, FIG. 2): reduced
pancreatic juice secretion increased by CCK-8 ([2]; 3 mg/kg/h intravenous infusion, FIG. 4): reduced the increased pancreatic juice secretion approximately to the control level
amount of lipase secreted (lipase secretion; 3 and 10 mg/kg/h i.v. infusion, FIG. 3): reduced significantly
basal secretion volume of pancreatic juice ([3]; 18:3-LPA 3 mg/kg/h i.v. infusion): inhibition of the basal secretion volume was observed
pancreatic juice secretion [4]: inhibited

CC/C=C\C/C=C\C/C=C\CCCCCCCC(=O)OCC(O)COP(=O)([O-])OCC[N+](C)(C)C (stereo not drawn) [18:3-LPC, 1-linolenoyl lisophosphatidylcholine, reference compound]
pancreatic juice secretion [1, 5]: no inhibitory effect
amylase secretion (amylase secretion; rats, 10 mg/kg/h, 1 ml/h, i.v. infusion): no inhibitory effect
pancreatic juice secretion induced by CCK-8 ([2]; 10 mg/kg/h, 1 ml/h, intravenous infusion): no inhibitory effect
lipase secretion (lipase secretion; [5]): no inhibitory effect

COC(=O)CCSCc1ccc(-c2onc(C)c2NC(=O)OC(C)c2ccccc2Cl)cc1 (stereo not drawn) [Compound 1, methyl 3-({4-[4-({[1-(2-chlorophenyl)ethoxy]carbonyl}amino)-3-methyl-5-isoxazolyl]benzyl}sulfanyl)propanoate]
recovery of pancreatic juice secretion from the inhibition by 18:3-LPA ([3]; Compound 1 administered together with 18:3-LPA (3 mg/kg/h), FIG. 5): significantly recovered
basal (at resting) secretion volume of pancreatic juice vs control group (vehicle) ([3]; Compound 1 alone, 10 mg/kg/h i.v. infusion, after one hour, FIG. 5): no difference

CCK-8: cholecystokinin, CCK-8 (Sigma No. C-2175), used to stimulate pancreatic juice secretion (DY(SO3H)MGWMDF-NH2; UniProt P06307 96-103, looked up)
secretion of pancreatic juice (stimulation) ([2]; 1 ml/h through the cervical vein): markedly increased
